From PMC3775947 (Clinical lymphoma, myeloma & leukemia, 2013)
Where two headings read alike, the source gives them in different places.

How the values were obtained:
[1] = Plasma pharmacokinetics of barasertib, barasertib-hQPA and LDAC; settings: for Css, barasertib: geometric mean (CV%)
[2] = system: elderly patients with newly diagnosed AML
[3] = system: elderly patients with newly diagnosed AML; assay: AML response assessed by investigators; format: in vivo, human
patients with AML = settings: cited from earlier work
[4] = system: elderly patients with newly diagnosed AML; assay: Phase I dose escalation: dose-limiting toxicities and maximum tolerated dose; format: in vivo, human
[5] = Total, barasertib 800-1200 mg + LDAC 400 mg, n=22
[6] = all patients, barasertib + LDAC, n=22
[7] = barasertib 800 mg + LDAC 400 mg, n=6
[8] = barasertib 1000 mg + LDAC 400 mg, n=13
[9] = barasertib 1200 mg + LDAC 400 mg, n=3
[10] = combination treatment barasertib + LDAC
[11] = overall, barasertib + LDAC, n=22

## CCN(CCCOc1ccc2c(Nc3cc(CC(=O)Nc4cccc(F)c4)n[nH]3)ncnc2c1)CCOP(=O)(O)O [Barasertib]
[1]; 7-day continuous iv infusion of barasertib, Day 1, maintained until EOI
  Steady-state plasma concentrations observed from, after start of infusion: 24 h
[1]; plasma, LLOQ 0.25 ng/mL
  Time following EOI at which levels were generally undetectable: 2 h
[1]; plasma, barasertib 800 mg + LDAC 400 mg, n=6
  Css, barasertib: 46.7 (55.8) ng/mL
[1]; plasma, barasertib 1000 mg + LDAC 400 mg, n=13
  Css, barasertib: 44.4 (55.5) ng/mL
[1]; plasma, barasertib 1200 mg + LDAC 400 mg, n=3
  Css, barasertib: 64.9 (67.4) ng/mL
[2]; MTD of barasertib 1000 mg + LDAC
  Grade ≥3 febrile neutropenia, patients: 69%
[2]; [5]
  Alopecia, AE (any cause; all grades): 6 (27) n (%)
  Anemia, grade ≥3 adverse event: 2 (9) n (%)
  Any AE (any cause; all grades): 22 (100) n (%)
  Any grade ≥3 AE: 21 (96) n (%)
  Confusional state, AE (any cause; all grades): 5 (23) n (%)
  Constipation, AE (any cause; all grades): 6 (27) n (%)
  Cough, AE (any cause; all grades): 4 (18) n (%)
  Decreased appetite, AE (any cause; all grades): 4 (18) n (%)
  Diarrhea, AE (any cause; all grades): 10 (46) n (%)
  Diarrhea, grade ≥3 adverse event: 2 (9) n (%)
  Febrile neutropenia, AE (any cause; all grades): 13 (59) n (%)
  Febrile neutropenia, grade ≥3 adverse event: 13 (59) n (%)
  Headache, AE (any cause; all grades): 5 (23) n (%)
  Hemorrhoids, AE (any cause; all grades): 4 (18) n (%)
  Hypertension, AE (any cause; all grades): 4 (18) n (%)
  Insomnia, AE (any cause; all grades): 4 (18) n (%)
  Musculoskeletal pain, AE (any cause; all grades): 4 (18) n (%)
  Nausea, AE (any cause; all grades): 11 (50) n (%)
  Neutropenia, AE (any cause; all grades): 4 (18) n (%)
  Neutropenia, grade ≥3 adverse event: 4 (18) n (%)
  Oropharyngeal pain, AE (any cause; all grades): 5 (23) n (%)
  Peripheral edema, AE (any cause; all grades): 9 (41) n (%)
  Petechiae, AE (any cause; all grades): 6 (27) n (%)
  Pneumonia, AE (any cause; all grades): 6 (27) n (%)
  Pneumonia, grade ≥3 adverse event: 3 (14) n (%)
  Pyrexia, AE (any cause; all grades): 5 (23) n (%)
  Rash, AE (any cause; all grades): 4 (18) n (%)
  Stomatitis, AE (any cause; all grades): 9 (41) n (%)
[2]; [6]
  Peripheral edema, patients: 41%
  Stomatitis, patients: 41%
[2]; [7]
  Alopecia, AE (any cause; all grades): 2 n
  Anemia, grade ≥3 adverse event: 2 n
  Any AE (any cause; all grades): 6 n
  Any grade ≥3 AE: 6 n
  Confusional state, AE (any cause; all grades): 2 n
  Constipation, AE (any cause; all grades): 3 n
  Cough, AE (any cause; all grades): 1 n
  Decreased appetite, AE (any cause; all grades): 2 n
  Diarrhea, AE (any cause; all grades): 5 n
  Diarrhea, grade ≥3 adverse event: 1 n
  Febrile neutropenia, AE (any cause; all grades): 4 n
  Febrile neutropenia, grade ≥3 adverse event: 4 n
  Headache, AE (any cause; all grades): 3 n
  Hemorrhoids, AE (any cause; all grades): 1 n
  Hypertension, AE (any cause; all grades): 0 n
  Insomnia, AE (any cause; all grades): 0 n
  Musculoskeletal pain, AE (any cause; all grades): 2 n
  Nausea, AE (any cause; all grades): 4 n
  Neutropenia, AE (any cause; all grades): 1 n
  Neutropenia, grade ≥3 adverse event: 1 n
  Oropharyngeal pain, AE (any cause; all grades): 1 n
  Peripheral edema, AE (any cause; all grades): 2 n
  Petechiae, AE (any cause; all grades): 3 n
  Pneumonia, AE (any cause; all grades): 3 n
  Pneumonia, grade ≥3 adverse event: 0 n
  Pyrexia, AE (any cause; all grades): 3 n
  Rash, AE (any cause; all grades): 2 n
  Stomatitis, AE (any cause; all grades): 3 n
  Stomatitis, grade ≥3 adverse event: 0 n
  Thrombocytopenia, grade ≥3 adverse event (grade 4): 1 n
  Vomiting, AE (any cause; all grades): 3 n
[2]; [8]
  Alopecia, AE (any cause; all grades): 4 n
  Anemia, grade ≥3 adverse event: 0 n
  Any AE (any cause; all grades): 13 n
  Any grade ≥3 AE: 12 n
  Confusional state, AE (any cause; all grades): 3 n
  Constipation, AE (any cause; all grades): 3 n
  Cough, AE (any cause; all grades): 3 n
  Decreased appetite, AE (any cause; all grades): 1 n
  Diarrhea, AE (any cause; all grades): 5 n
  Diarrhea, grade ≥3 adverse event: 1 n
  Febrile neutropenia, AE (any cause; all grades): 9 n
  Febrile neutropenia, grade ≥3 adverse event: 9 n
  Headache, AE (any cause; all grades): 2 n
  Hemorrhoids, AE (any cause; all grades): 3 n
  Hypertension, AE (any cause; all grades): 3 n
  Insomnia, AE (any cause; all grades): 3 n
  Musculoskeletal pain, AE (any cause; all grades): 2 n
  Nausea, AE (any cause; all grades): 6 n
  Neutropenia, AE (any cause; all grades): 2 n
  Neutropenia, grade ≥3 adverse event: 2 n
  Oropharyngeal pain, AE (any cause; all grades): 4 n
  Peripheral edema, AE (any cause; all grades): 7 n
  Petechiae, AE (any cause; all grades): 2 n
  Pneumonia, AE (any cause; all grades): 3 n
  Pneumonia, grade ≥3 adverse event: 3 n
  Pyrexia, AE (any cause; all grades): 2 n
  Rash, AE (any cause; all grades): 2 n
  Stomatitis, AE (any cause; all grades): 4 n
  Stomatitis, grade ≥3 adverse event: 2 n
  Thrombocytopenia, grade ≥3 adverse event (grade 4): 1 n
  Vomiting, AE (any cause; all grades): 2 n
[2]; [9]
  Alopecia, AE (any cause; all grades): 0 n
  Anemia, grade ≥3 adverse event: 0 n
  Any AE (any cause; all grades): 3 n
  Any grade ≥3 AE: 3 n
  Confusional state, AE (any cause; all grades): 0 n
  Constipation, AE (any cause; all grades): 0 n
  Cough, AE (any cause; all grades): 0 n
  Decreased appetite, AE (any cause; all grades): 1 n
  Diarrhea, AE (any cause; all grades): 0 n
  Diarrhea, grade ≥3 adverse event: 0 n
  Febrile neutropenia, AE (any cause; all grades): 0 n
  Febrile neutropenia, grade ≥3 adverse event: 0 n
  Headache, AE (any cause; all grades): 0 n
  Hemorrhoids, AE (any cause; all grades): 0 n
  Hypertension, AE (any cause; all grades): 1 n
  Insomnia, AE (any cause; all grades): 1 n
  Musculoskeletal pain, AE (any cause; all grades): 0 n
  Nausea, AE (any cause; all grades): 1 n
  Neutropenia, AE (any cause; all grades): 1 n
  Neutropenia, grade ≥3 adverse event: 1 n
  Oropharyngeal pain, AE (any cause; all grades): 0 n
  Peripheral edema, AE (any cause; all grades): 0 n
  Petechiae, AE (any cause; all grades): 1 n
  Pneumonia, AE (any cause; all grades): 0 n
  Pneumonia, grade ≥3 adverse event: 0 n
  Pyrexia, AE (any cause; all grades): 0 n
  Rash, AE (any cause; all grades): 0 n
  Stomatitis, AE (any cause; all grades): 2 n
  Stomatitis, grade ≥3 adverse event: 2 n
  Thrombocytopenia, grade ≥3 adverse event (grade 4): 0 n
  Vomiting, AE (any cause; all grades): 1 n
[2]; [10]
  ECG assessment: no clinically significant changes
  Vital signs, hematology, or clinical chemistry parameters: no clinically relevant adverse changes
[2]; [11]
  Dose interruptions due to AEs: Three
  Grade ≥3 febrile neutropenia, patients: 59%
  SAE febrile neutropenia: 36%
  SAE stomatitis: 9%
  SAEs considered related to study treatment: Five
  Serious AEs (SAEs), patients: 68%
[3]; all patients, barasertib + LDAC, n=10/22
  Overall response rate (International Working Group criteria; by investigator opinion): 45%
[3]; [6]
  Complete response with incomplete recovery of neutrophils and/or platelets, patients: 9%
  Partial response, patients: 9%
[3]; [7]
  Best clinical response: CR (complete response): 2 n
  Best clinical response: CRi (complete response with incomplete recovery of neutrophils and/or platelets): 0 n
  Best clinical response: ORR (overall response rate): 3 (50) n (%)
  Best clinical response: PR (partial response): 1 n
[3]; [8]
  Best clinical response: CR (complete response): 3 n
  Best clinical response: CRi (complete response with incomplete recovery of neutrophils and/or platelets): 2 n
  Best clinical response: ORR (overall response rate): 6 (46) n (%)
  Best clinical response: PR (partial response): 1 n
[3]; barasertib 1000 mg cohort + LDAC, 6/13 patients
  Response rate: 46%
[3]; [9]
  Best clinical response: CR (complete response): 1 n
  Best clinical response: CRi (complete response with incomplete recovery of neutrophils and/or platelets): 0 n
  Best clinical response: ORR (overall response rate): 1 (33) n (%)
  Best clinical response: PR (partial response): 0 n
[3]; barasertib + LDAC, n=7
  Complete response, patients with adverse cytogenetic risk: 14%
[3]; barasertib + LDAC, n=9
  Complete responses (CR or CRi), patients with intermediate risk cytogenetics: 44%
Patients with AML; barasertib monotherapy Phase I study
  Incidence of febrile neutropenia: 47%
Patients with AML; barasertib
  Lowest dose associated with clinical activity: 400 mg
[4]; barasertib 1200 mg + LDAC
  Tolerability of dose level: non-tolerated
[4]; in vivo
  DLTs reported: No DLTs
